Laboratory results reported in patent US4407803A, “Antiinflammatory 1-(quinolinyl)-2-pyrazoline derivatives” (Abbott Laboratories, priority 1981, dated 1983).

What was measured:
dermal Arthus reaction = assay: reverse passive Arthus assay in rats (dermal lesion); assay type: in vivo, Male Sprague-Dawley rats; details: 100 mg/kg, oral, 30 min before anti-B.S.A.; lesion measured at four hours
Procedure: Proc. 35, 774 (1976). Each compound was administered orally to a group of four animals.
The […] passive Arthus reaction test in rats is conducted as follows: Male Sprague-Dawley rats weighing approximately 130-160 g. are used, 4 rats per group. All animals are injected intravenously with 0.5 ml. 0.075% Bovine Serum Albumin (B.S.A.)+2% Evans Blue solution. Each rat then receives an oral dose of drug; one drug is administered per group.
Thirty minutes subsequent to drug dosing, each animal is injected intradermally with 0.05 ml. 1.44% Anti-B.S.A. into the dorsal skin. Four hours later the animals are sacrificed, the dorsal skin reflexed, and the lesion excised. Two perpendicular diameters of each lesion are measured. The average diameters of the lesions from the treated groups are compared with the average diameters from the control group to determine any drug effect.

carrageenin pleurisy = assay: modification of the carrageenin pleurisy assay (reduction in accumulation of exudate volume and leukocytes); assay type: in vivo; details: for % Inhibition Cells: leukocytes
From the text: The compounds of the present invention have anti-inflammatory activity and inhibitory effect against Type III hypersensitivity reaction. These compounds are useful for the therapy of rheumatoid arthritis, other inflammatory conditions, Type III hypersensitivity diseases and in diseases in which polymorphonuclear leukocytes accumulation contributes to the pathology. The anti-inflammatory activity of these compounds was established by using a modification of the carrageenin pleurisy assay described by Vinegar et al. Proc. Soc. Exp. Biol. Med. 143:711 (1973).

| Structure (SMILES) | % Inhibition of lesion of dermal Arthus reaction (dermal Arthus reaction) [%] | % Inhibition Volume exudates (carrageenin pleurisy; Dose 60 (dose unit not given)) [%] | % Inhibition Cells (carrageenin pleurisy; Dose 60 (dose unit not given)) [%] | % Inhibition Volume exudates (carrageenin pleurisy; Dose 100 (dose unit not given)) [%] | % Inhibition Cells (carrageenin pleurisy; Dose 100 (dose unit not given)) [%] |
| --- | --- | --- | --- | --- | --- |
| N=C1CCN(c2ccc3ccccc3n2)N1 [1-(2'-quinolinyl)-3-iminopyrazolidine, 1-(2'-quinolinyl)-3-imino-pyrazolidine] | 72 |  |  |  |  |
| N=C1CCN(c2cnc3ccccc3c2)N1 [1-(3'-quinolinyl)-3-iminopyrazolidine, 1-(3'-Quinolinyl)-3-iminopyrazolidine] | 37 | 86 | 71 |  |  |
| N=C1CCN(c2ccnc3cc(Cl)ccc23)N1 [1-(7'-chloro-4'-quinolinyl)-3-imino pyrazolidine] | 53 |  |  |  |  |
| CCCCC1C(=O)N(c2ccccc2)N(c2ccccc2)C1=O [Phenylbutazone, reference compound] |  |  |  | 59 | 13 |
